This is an account of results in patent publication US20040106148A1, “Polypeptides” (priority 2000, published 2004).

As a reminder, the pKd is −log10 of the Kd, conventionally taken in molar units.

In test [1] the target is human TAPP1 C-terminal PH domain (residues 95 to 404), GST fusion (Homo sapiens, UniProt Q9HB21). The experiment in a line: Protein-lipid overlay. It counts as binding. As to conditions: protein-lipid overlay (FIG. 2). As for the experimental part: (§1) FIG. 2. Phosphoinositide binding properties of the novel PH domains. The ability of the indicated GST fusion proteins to bind a variety of phosphoinositides was analysed using a protein-lipid overlay. Serial dilutions of the indicated phosphoinositides (100 pmol, 50 pmol, 25 pmol, 12.5 pmol, 6.3 pmol, 3.1 pmol and 1.6 pmol) were spotted onto a nitrocellulose membranes which were then incubated with the purified GST fusion proteins. The membranes were washed and the GST-fusion proteins bound to the membrane by virtue of their interaction with lipid were detected using a GST antibody. A representative of at least 3 separate experiments carried out is shown.
Chain of human TAPP1 C-terminal PH domain (residues 95 to 404), GST fusion (Q9HB21 95-404): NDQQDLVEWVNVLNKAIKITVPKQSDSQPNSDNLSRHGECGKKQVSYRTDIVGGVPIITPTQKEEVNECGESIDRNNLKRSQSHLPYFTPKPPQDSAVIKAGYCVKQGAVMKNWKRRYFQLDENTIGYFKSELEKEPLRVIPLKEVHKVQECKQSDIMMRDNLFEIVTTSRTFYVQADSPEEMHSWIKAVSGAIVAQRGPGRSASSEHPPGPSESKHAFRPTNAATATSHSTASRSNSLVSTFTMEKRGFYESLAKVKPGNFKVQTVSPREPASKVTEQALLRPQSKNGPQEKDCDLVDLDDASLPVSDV
(§2) FIG. 4. Comparison of the phosphoinositide binding properties of the N-terminal and C-terminal PH domains of TAPP1 and TAPP2. The ability of wild type and mutant forms of full length (FL) and isolated N-terminal (NT) and C-terminal (CT) PH domains of TAPP1 and TAPP2 GST-fusion proteins to interact with phosphoinositides were analysed using a protein-lipid overlay. Serial dilutions of the indicated phosphoinositides (100 pmol, 50 pmol, 25 pmol, 12.5 pmol, 6.3 pmol, 3.1 pmol and 1.6 pmol) were spotted onto a nitrocellulose membrane which was then incubated with the indicated purified GST fusion proteins. The membranes were washed and the GST-fusion proteins bound to the membrane by virtue of their interactions with lipid were detected using a GST antibody. A representative experiment of three is shown. The isolated N-terminal PH domain of human TAPP1 comprises residues 1 to 147, the isolated C-terminal PH domain of human TAPP1 comprises residues 95 to 404, the isolated N-terminal PH domain of mouse TAPP2 comprises residues 1 to 131 and the isolated C-terminal PH of mouse TAPP2 comprises residues 174 to 425.
(§3) Protein-Lipid overlay. To assess the phosphoinositide binding properties of each PH domain, a protein-lipid overlay assay was performed using the GST fusion proteins as described previously. […] The membrane was blocked in 3% (by mass) fatty acid-free BSA in TBST (50 mM Tris/HCl pH 7.5, 150 mM NaCl and 0.1% Tween-20 (by vol) for lh. The membrane was then incubated overnight at 4° C. with gentle agitation in the same solution containing 0.2 μg/ml of the indicated GST fusion protein. The membranes were washed 6 times over 30 min in TBST and then incubated for 1 h with 1/1000 dilution of anti-GST monoclonal antibody (Sigma). The membranes were washed as before, then incubated for 1 h with 1/5000 dilution of anti-mouse-HRP conjugate (Pierce). Finally, the membranes were washed 12 times over 1 h in TBST and the GST-fusion protein bound to the membrane by virtue of its interaction with phospholipid was detected by enhanced chemiluminescence.

The target in test [2] is T1, mouse TAPP2 C-terminal PH domain (residues 174 to 425), GST fusion (Mus musculus, UniProt Q9ERS5).
T1 construct: made in house; host or cells: human embryonic kidney 293 cells (pEBG-2T)
T1 sequence (Q9ERS5 174-425): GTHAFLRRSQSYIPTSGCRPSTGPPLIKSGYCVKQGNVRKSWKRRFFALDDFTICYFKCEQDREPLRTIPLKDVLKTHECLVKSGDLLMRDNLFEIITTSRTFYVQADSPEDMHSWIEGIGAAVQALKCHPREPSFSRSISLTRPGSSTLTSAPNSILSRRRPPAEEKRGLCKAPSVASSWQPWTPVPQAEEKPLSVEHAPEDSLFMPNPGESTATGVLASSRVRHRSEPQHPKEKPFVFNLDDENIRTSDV
Put plainly: Protein-lipid overlay. It is filed as binding. As to conditions: protein-lipid overlay (FIG. 2). Here is the method: as §1, §2, §3

In test [3] the target is T1, mouse TAPP2 C-terminal PH domain (residues 174 to 425), GST fusion. Put plainly: Surface plasmon resonance (BIACore), GST fusion binding to phosphoinositide in supported lipid monolayer. Particulars: read-out: apparent Kd. The text has this: Cloning of PH domains and preparation of expression constructs. All the human and mouse EST's were obtained from the I.M.A.G.E. Consortium and sequenced. The plant EST (accession number T04439) encoding a full length clone of AtPH1 was obtained from the Arabidopsis Biological Research. Centre (Ohio University). The sequence of each EST was verified and the full length PH domain of each EST was amplified by PCR using the Hi-fidelity PCR system with primers designed to incorporate a Kozak site, an initiating ATG codon followed by a myc epitope tag and a stop codon after the PH domain. […]
Kinetic analyses of the interactions between the GST PH domain fusions and the polyphosphoinositides were made using surface plasmon resonance based procedures as described previously, with the following modifications. […] Data were analysed using the bimolecular interaction model and the global fitting feature of the BIAevaluation 3 software for several sensorgrams at different protein concentrations. […] The relative binding affinities of each protein relative to the binding of full length GST-TAPP1 to PtdIns(3,4)P2 were also calculated.

pKd: −log10 of the molar value.

Turning to `CCCCCCCCCCCCCCCC(=O)OC[C@H](COP(=O)(O)O[C@H]1[C@H](O)[C@@H](O)[C@H](OP(=O)(O)O)[C@@H](OP(=O)(O)O)[C@H]1O)OC(=O)CCCCCCCCCCCCCCC` [PtdIns(3,4)P2], the phosphoinositide binding entry in test [1] and in test [2] was “interacted” in each case. The pKd in test [3] is 7.52.
